Assay results taken from patent US4929623A, “Benzothiazole derivative” (Eisai Co., Ltd., priority 1987, dated 1990).

system: generation of leukotriene C4 (LT) from sliced lung of guinea pig; assay: Effect on generation of leukotriene C4 from sliced lung of guinea pig (passively sensitized, ovalbumin challenge); type: cell-based, guinea pig (male Hartley); conditions: 3 μM test compound, 10 min preincubation, ovalbumin 10 μg/ml, 15 min, 37° C., 3 µM
Protocol: Effect on generation of leukotriene C4 (LT) from sliced lung of guinea pig
An antiovalbumin guinea pig serum (1/10 dilution; 0.5 ml/100 g) was intravenously injected into a male Hartley guinea pig (300-350 g) for passive sensitization. 16 to 18 hr after the passive sensitization, the blood was removed by circulation of the Tyrode solution and the lung was extirpated. The extirpated lung was cut into small pieces having a size of 1 mm×1 mm×1 mm while cooling the lung with ice. The pieces were washed, and 150 mg of the pieces was suspended on 1.8 ml of the Tyrode solution, followed by incubation at 37° C. for 5 min. A 3 μM test compound (the compound of the present invention) solution was added thereto, followed by incubation for 10 min. An antigen solution (ovalbumin; a final concentration of 10 μg/ml) was added thereto, followed by incubation for additional 15 min. The mixture was filtered through a nylon mesh. 100 μl of the filtrate was subjected to determination of the amount of leukotriene C4 (LTC4) with an RzA kit.
The percentage leukotriene C4 (LTC4) liberation inhibition of each compound (indicated by compound No. used in the Examples which will be described later) is shown in Table 1.

In the case of Cc1c(O)c(C)c2sc(N)nc2c1C [Compound 92], the “Percentage inhibition (leukotriene C4 (LTC4) liberation inhibition)” value is reported as 64%.

same assay, conditions: Cavia porcellus, 3 μM test compound, 10 min preincubation, ovalbumin 10 μg/ml, 15 min, 37° C., read-out: Percentage inhibition (leukotriene C4 (LTC4) liberation inhibition)

Point of comparison: Cc1c(O)c(C)c2sc(Nc3ccc(C(=O)O)cc3)nc2c1C [Compound 101, 6-hydroxy-2-(4-carboxylphenylamino)-4,5,7-trimethylbenzothiazole], inhibition at 3 µM 37%. Against it:
- Cc1c(O)c(C)c2sc(NCc3ccc(S(=O)(=O)N(CCO)CCO)cc3)nc2c1C [Compound 31] — higher, 62%
- Cc1c(O)c(C)c2sc(NC(=O)c3cccnc3)nc2c1C [Compound 51] — higher, 56%
- Nc1nc2cc(Br)c(O)c(Br)c2s1 [Compound 13] — lower, 35%
- CCN(Cc1ccc(S(N)(=O)=O)cc1)c1nc2c(C)c(C)c(O)c(C)c2s1 [Compound 35] — higher, 68%
- CCOC(=O)CCC(=O)Nc1nc2c(C)c(C)c(O)c(C)c2s1 [Compound 64] — lower, 32%
- Cc1c(O)c(C)c2sc(N3CCCC3=O)nc2c1C [Compound 90] — higher, 41%
- Cc1c(O)c(C)c2sc(NS(=O)(=O)c3ccccc3)nc2c1C [Compound 71] — higher, 53%
- CCCCCNc1nc2c(C)c(C)c(O)c(C)c2s1 [Compound 95] — higher, 72%
- CC(C)c1cc2nc(N3CCC(O)CC3)sc2c(C(C)C)c1O [Compound 128] — higher, 60%
- COc1c(O)c(C)c2sc(N)nc2c1OC [Compound 110] — higher, 41%
- Cc1c(O)c(C)c2sc(NCc3ccc(N(C)C)cc3)nc2c1C [Compound 28] — lower, 34%
- Cc1ccc2sc(N)nc2c1O [Compound 19] — lower, 36%
- Nc1nc2c(O)c(Cl)ccc2s1 [Compound 20] — lower, 33%
- Cc1c(O)c(C)c2sc(NC(=O)CN(C)C)nc2c1C [Compound 57] — higher, 42%
- CC(=O)Nc1nc2c(C)c(C)c(O)c(C)c2s1 [Compound 53] — higher, 69%
- Cc1c(O)c(C)c2sc(NCc3ccc(C(=O)O)cc3)nc2c1C [Compound 135] — higher, 41%
- CC(C)c1cc2nc(N(CCO)CCO)sc2c(C(C)C)c1O [Compound 123] — higher, 71%
- Cc1c(O)c(C(C)C)c2sc(N)nc2c1C [Compound 9] — lower, 36%
- Cc1c(O)c(C)c2sc(Nc3ccc(O)cc3)nc2c1C [Compound 98] — higher, 60%
- Cc1c(O)c(C)c2sc(NCc3ccc(S(C)(=O)=O)cc3)nc2c1C [Compound 30] — higher, 79%
- Cc1c(O)c(C)c2sc(NCc3ccc(S(=O)(=O)NCCO)cc3)nc2c1C [Compound 33] — higher, 46%
- Cc1c(O)c(C)c2sc(Nc3ccc(S(N)(=O)=O)cc3)nc2c1C [Compound 103] — higher, 48%
- Cc1c(O)c(C)c2sc(NC(=O)c3ccccc3)nc2c1C [Compound 54] — higher, 58%
- CC(C)c1cc2nc(NCc3ccccn3)sc2c(C(C)C)c1O [Compound 126, 6-hydroxy-2-(2-pyridylmethylamino)-5,7-diisopropylbenzothiazole] — higher, 66%
- Cc1c(O)c(C)c2sc(NCc3ccccc3)nc2c1C [Compound 134] — higher, 88%
- CC(C)c1cc2nc(Nc3ccc(C(=O)O)cc3)sc2c(C(C)C)c1O [Compound 113, 6-hydroxy-2-(4-carboxylphenylamino)-5,7-diisopropylbenzothiazole] — higher, 49%
- Cc1c(O)c(C)c2sc(NCCCC(=O)NC3CCCCC3)nc2c1C [Compound 91] — higher, 53%
- Cc1c(O)c(C)c2sc(Nc3ccc(CCC(=O)O)cc3)nc2c1C [Compound 108] — lower, 30%
- Cc1c(O)c(C)c2sc(NS(=O)(=O)C(C)C)nc2c1C [Compound 70] — lower, 30%
- Cc1c(O)c(C(C)(C)C)cc2nc(N)sc12 [Compound 22] — higher, 61%
- Cc1c(O)c(C)c2sc(NCc3ccc(S(N)(=O)=O)cc3)nc2c1C [Compound 34, 6-hydroxy-2-(4-sulfamoylbenzylamino)-4,5,7-trimethyl-benzothiazole] — higher, 70%
- Cc1c(O)c(C)c2sc(NC(=O)N(C)C)nc2c1C [Compound 58] — higher, 64%
- CCN(CC)S(=O)(=O)c1ccc(CNc2nc3c(C)c(C)c(O)c(C)c3s2)cc1 [Compound 32] — higher, 44%
- COc1ccc(Nc2nc3c(C)c(C)c(O)c(C)c3s2)cc1 [Compound 99] — higher, 43%
- Cc1c(O)c(C)c2sc(NCc3ccc(NS(C)(=O)=O)cc3)nc2c1C [Compound 29] — higher, 43%
- CCOC(=O)C(=O)Nc1nc2c(C)c(C)c(O)c(C)c2s1 [Compound 60] — lower, 36%
- CC(C)c1cc2nc(N3CCOCC3)sc2c(C(C)C)c1O [Compound 124] — higher, 72%
- CC(C)c1cc2nc(NS(=O)(=O)N(C)C)sc2c(C(C)C)c1O [Compound 75] — higher, 50%
- CNc1nc2c(C)c(C)c(O)c(C)c2s1 [Compound 93] — higher, 83%
- CC(C)c1cc2nc(Nc3ccc(S(N)(=O)=O)cc3)sc2c(C(C)C)c1O [Compound 122] — lower, 34%
- CC(C)c1cc2nc(NCc3ccc(S(N)(=O)=O)cc3)sc2c(C(C)C)c1O [Compound 37] — higher, 39%
- Cc1c(O)c(C)c2sc(NCC3CCCCC3)nc2c1C [Compound 25] — lower, 36%
- Cc1c(O)c(C)c2sc(NCC(C)C)nc2c1C [Compound 24] — higher, 95%
- NS(=O)(=O)c1ccc(CNc2nc3cc(Br)c(O)c(Br)c3s2)cc1 [Compound 86, 6-hydroxy-2-(4-sulfamoylbenzylamino)-5,7-dibromobenzothiazole] — lower, 31%
- Cc1c(O)c(C)c2sc(NS(C)(=O)=O)nc2c1C [Compound 69] — higher, 42%
- Cc1c(O)c(C)c2sc(N(C)C)nc2c1C [Compound 94] — higher, 79%
- CCNc1nc2c(C)c(C)c(O)c(C)c2s1 [Compound 26] — higher, 85%
- Cc1c(O)c(C)c2sc(NC(=O)C(=O)O)nc2c1C [Compound 61] — lower, 36%
- CC(C)c1cc2nc(Nc3ccccc3)sc2c(C(C)C)c1O [Compound 115] — higher, 39%
- CC(C)c1cc2nc(NC(=O)N(C)C)sc2c(C(C)C)c1O [Compound 68] — higher, 70%
- Nc1nc2c(cc(O)c3ncccc32)s1 [Compound 17] — lower, 35%
- Nc1nc2c(O)c(Br)cc(Br)c2s1 [Compound 21] — higher, 48%
- COC(=O)c1ccc(CNc2nc3c(C)c(C)c(O)c(C)c3s2)cc1 [Compound 136] — higher, 67%
- Cc1c(O)c(C)c2sc(Nc3cc(Cl)c(O)c(Cl)c3)nc2c1C [Compound 106] — higher, 49%
- CCOC(=O)Nc1nc2c(C)c(C)c(O)c(C)c2s1 [Compound 59] — higher, 71%
- Cc1c(O)c(C)c2sc(NC(=O)C3CCCCC3)nc2c1C [Compound 52] — higher, 62%
- CC(C)c1cc2nc(N)sc2c(C(C)C)c1O [Compound 10] — higher, 78%
- Cc1c(O)c(C)c2sc(N)nc2c1C [Compound 8, 6-hydroxy-2-amino-4,5,7-trimethylbenzothiazole] — higher, 75%
- CC(C)=CCNc1nc2c(C)c(C)c(O)c(C)c2s1 [Compound 96] — higher, 77%
- Cc1c(O)c(C)c2sc(NCc3ccc(Cl)cc3Cl)nc2c1C [Compound 137] — higher, 40%
- Cc1c(O)c(C)c2sc(NCc3ccc(C(N)=O)cc3)nc2c1C [Compound 141] — higher, 53%
- CCN(Cc1ccc(S(N)(=O)=O)cc1)c1nc2cc(C(C)C)c(O)c(C(C)C)c2s1 [Compound 40] — lower, 32%
- CCOC(=O)CCCNc1nc2c(C)c(C)c(O)c(C)c2s1 [Compound 88] — higher, 79%
- NS(=O)(=O)c1ccc(CNc2nc3c(O)c(Br)cc(Br)c3s2)cc1 [Compound 87] — lower, 32%
- CC(C)c1c(O)c(C(C)C)c2sc(N)nc2c1Cl [Compound 76] — higher, 72%
